Measurements published in patent US8198317B2, “Methylenedioxy phenolic compounds and their use to treat disease” (The Ohio State University Research Foundation, priority 2008, dated 2012).

Assays:
[1] = tested on: Watanabe Heritable Hyperlipidemic Rabbits (WHHL); test: Immunohistochemistry and staining of WHHL rabbit aorta; type: in vivo
Description: Immunohistochemical staining was performed to assess inflammatory content using the primary antibodies (1:200 concentration) and a detection system (Immunoperoxidase Secondary Detection System; Chemicon International, Temecula, Calif.), and quantified with software (NIH Image) after digitization of the images with a camera system (Zeiss Axioskop with Spot I digital camera). Antibodies against CD68 were purchased from Santa Cruz Biotechnology Incorporated (Santa Cruz, Calif.). A polyclonal anti-α-Actin antibody was obtained from Upstate Cell Signaling Solutions (Lake Placid, N.Y.). T cell receptor β antibody was obtained from Biolegend (San Diego, Calif.). To quantify the staining, the mean density of 4 negative control (no primary antibody) sections was set as the threshold, and positive area was acquired by software. Results were finally normalized by the area subtended by the external elastic lamina to the luminal interface or the intimal-medial volume. The effects of INV-75 on macrophages and smooth muscle cells in comparison to control group were evaluated by CD68 and α-actin immunohistochemistry, respectively. INV-75 decreased the number of macrophages vs. controls and summary of whole groups is represented by bar diagram in FIG. 10 (n=4-5 animals/group). *p<0.05 vs control animals using unpaired t test). […] INV-75 increased the smooth muscle content (% of total area) vs controls and the combined results were represented as a bar diagram n=5/group (n=number of animals used per group). *p<0.05 vs control animals.
Lipid deposition in aorta was identified after total 14 weeks of treatment with drug, rabbits were sacrificed and abdominal aortas were fixed in 4% paraformaldehyde. The lipid deposition in aortic wall was then visualized by oil red staining. […] (FIG. 13).

[2] = tested on: Watanabe Heritable Hyperlipidemic Rabbits (WHHL); test: Quantitative RT-PCR of genes in thoracic aorta of WHHL rabbits; type: in vivo, rabbit
Description: Total RNA was isolated with TRIzol reagent (Invitrogen). Four microgram of total RNA was reverse transcribed by random hexamers and ThermoScript RT-PCR System (Invitrogen). Quantitative real-time PCR was performed with the Stratagene Mx3005 using SYBER Green PCR Master Mix (Applied Biosystems, Foster City, Calif.). Relative expression level compared to GAPDH was obtained. The primers used in the experiment are depicted in the table below and were purchased from Invitrogen.

CC(=O)Oc1cc2c(cc1[N+](=O)[O-])OCO2 [INV-75, 3,4-methylenedioxy-6-nitrophenyl acetate] was tested, and the “collagen content (Masson's trichrome)” value ([1]; WHHL abdominal aorta, vs control group) was “reduction”, the “lipid component (Oil Red O)” value ([1]; WHHL abdominal aorta, vs controls) was “decreased” and the “number of macrophages (CD68)” value ([1]; WHHL aorta, vs controls) was “decreased”. For the same compound, the “smooth muscle content (% of total area, α-actin)” value ([1]; WHHL aorta, vs controls) was “increased”, the “mRNA expression of ICAM-1” value ([2]; WHHL thoracic aorta) was “decreased” and the “mRNA expression of L-selectin” value ([2]; WHHL thoracic aorta) was “decreased”. The “mRNA expression of MCP-1” value ([2]; WHHL thoracic aorta) was “decreased”, the “mRNA expression of VCAM-1” value ([2]; WHHL thoracic aorta) was “decreased” and the “mRNA expression of the angiotensin II Type I receptor” value ([2]; WHHL, data not shown) was “decreased”.
